The values below come from patent US20240124451A1, “PHTHALAZINE DERIVATIVES USEFUL AS INHIBITORS OF NOD-LIKE RECEPTOR PROTEIN 3” (Merck Sharp & Dohme LLC, priority 2022, published 2024).

In this assay the target is T1, NLRP3 inflammasome (Homo sapiens, UniProt Q96P20).
T1 construct: host or cells: THP-1 human monocytic cells, PMA-treated, stimulated with gramicidin
T1 sequence (Q96P20 whole entry): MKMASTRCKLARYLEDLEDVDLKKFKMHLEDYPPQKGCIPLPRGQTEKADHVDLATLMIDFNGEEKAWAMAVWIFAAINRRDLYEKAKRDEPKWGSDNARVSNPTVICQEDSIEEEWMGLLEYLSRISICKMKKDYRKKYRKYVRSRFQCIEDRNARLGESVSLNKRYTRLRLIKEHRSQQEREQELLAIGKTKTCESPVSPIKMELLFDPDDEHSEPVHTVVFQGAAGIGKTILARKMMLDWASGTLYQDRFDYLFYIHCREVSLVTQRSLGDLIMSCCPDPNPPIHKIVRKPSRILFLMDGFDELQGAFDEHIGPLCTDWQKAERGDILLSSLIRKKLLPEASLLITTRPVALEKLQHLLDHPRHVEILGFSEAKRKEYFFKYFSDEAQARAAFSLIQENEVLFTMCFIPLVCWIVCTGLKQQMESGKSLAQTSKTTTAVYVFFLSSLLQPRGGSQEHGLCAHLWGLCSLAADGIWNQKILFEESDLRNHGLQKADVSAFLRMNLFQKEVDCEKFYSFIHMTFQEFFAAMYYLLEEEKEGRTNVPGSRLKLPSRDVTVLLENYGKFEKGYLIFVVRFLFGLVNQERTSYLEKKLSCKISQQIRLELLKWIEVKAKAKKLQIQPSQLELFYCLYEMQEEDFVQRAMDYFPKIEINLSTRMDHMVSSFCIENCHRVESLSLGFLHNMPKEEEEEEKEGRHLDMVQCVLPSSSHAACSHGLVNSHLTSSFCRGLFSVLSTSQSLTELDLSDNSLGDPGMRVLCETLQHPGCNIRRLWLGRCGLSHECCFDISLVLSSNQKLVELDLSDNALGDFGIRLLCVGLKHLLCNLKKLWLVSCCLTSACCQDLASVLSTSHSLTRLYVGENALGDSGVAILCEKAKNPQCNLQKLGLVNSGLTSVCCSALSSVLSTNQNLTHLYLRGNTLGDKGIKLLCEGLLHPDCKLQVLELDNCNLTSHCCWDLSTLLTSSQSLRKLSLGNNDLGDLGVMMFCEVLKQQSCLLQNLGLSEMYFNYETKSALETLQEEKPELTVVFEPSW
The assay can be described thus: ASC-SPECK formation in THP-1 cells after gramicidin stimulation (NLRP3 inflammasome activation). It is filed as cell-based. Particulars: PMA-treated human monocytic THP-1 cells, compound 1 h before 12.5 ug/ml gramicidin, 3 h, ASC SPECK imaging; read-out: EC50 (nM) for Examples that inhibit NLRP3 inflammasome activation. The method, then:
The ability of compounds to inhibit NLRP3 inflammasome activation was determined in vitro by monitoring formation of the ASC-SPECK in human monocytic THP-1 cells after stimulation. THP-1 cells (ATCC catalog #TIB-202) were maintained in complete growth media containing Roswell Park Memorial Institute RPMI (ATCC catalog #30-2001), 10% heat inactivated fetal bovine serum, 1× penicillin/streptomycin and 0.05 mM 2-mercaptoethanol. At the start of the assay, undifferentiated THP-1 cells were plated at a density of 20,000 cells per well in a 384-well plate (Poly-D-lysine coated Cell Carrier Ultra microplate, Perkin Elmer catalog #6057500) in complete growth media supplemented with 10 ng/ml phorbol 12-myristate 13-acetate (PMA; Sigma catalog #P8139), and then incubated overnight. The next day, media was replaced with assay media [RPMI (Gibco catalog #11875-093), 0.01% bovine serum albumin (BSA)]. Compounds were serially diluted in DMSO and then added to wells one hour prior to the addition of 12.5 ug/ml Gramicidin (Enzo Lifescience, catalog #ALX-350-233-M005). All incubations were carried out at 37° C. (5% CO2/95% air). Following a 3-hour treatment with gramicidin, cells are fixed with 4% paraformaldehyde and stored at 4° C. until immunofluorescence staining.
Immunofluorescence staining: Anti-ASC antibody (MBL catalog #D086-3) was desalted and labeled with Alexa 488 antibody labeling kit (Thermo catalog #A20181) prior to use as described below. After fixation, the following steps were carried out at room temperature. Cells were first permeabilized with 0.3% Triton X-100 in phosphate-buffered saline (PBS) for 15 minutes and then incubated in blocking buffer containing 5% goat serum, 0.3% tween-20 and 0.03% sodium azide in PBS for 1 hour. Cells were stained with a mixture of ASC-Alexa 488 antibody (diluted 1:200 in blocking buffer) and nuclear stain DRAQ5 (1:5000 in blocking buffer, Thermo catalog #62251) in blocking buffer for 1 hour. Following a wash with 0.3% Tween-20 in PBS, plates were imaged with an Opera Phenix High Content Screening System. The number of DRAQ5 positive cells containing ASC SPECKS were quantified in each well.
Data analysis: EC50 values were calculated by standard curve-fitting analysis using an internally developed program in TIBCO Spotfire software.
What is called EC50 is the concentration at which the effect is half-maximal. In the case of `C[C@@H]1CN(c2nnc(-c3ccc4occc4c3)c3ccncc23)C[C@H](C)O1` [Example 11, (cis)-4-(1-(benzofuran-5-yl)pyrido[3,4-d]pyridazin-4-yl)-2,6-dimethylmorpholine], the half-maximal effective concentration (EC50) came out at 750 nM.
For `Cc1ccc2c(-c3ccc(C(F)(F)F)cc3O)nnc(N3CC[C@](C)(O)C3)c2n1` [Example 10, (S)-1-(5-(2-hydroxy-4-(trifluoromethyl)phenyl)-2-methylpyrido[2,3-d]pyridazin-8-yl)-3-methylpyrrolidin-3-ol] the value was 60 nM.
For `C[C@]1(O)CCN(c2nnc(-c3ccc(C(F)(F)F)cc3O)c3ccncc23)C1` (single isomer, unassigned) [Example 2] the value was 49 nM.
For `C[C@]1(O)CCN(c2nnc(-c3ccc(C(F)(F)F)cc3O)c3cnccc23)C1` (single isomer, unassigned) [Example 1] the value was 356 nM; for `Oc1cc(C(F)(F)F)ccc1-c1nnc(N2CCC(O)(c3ccccc3)C2)c2ncccc12` (racemic) [Example 38, (R and S)-1-(5-(2-hydroxy-4-(trifluoromethyl)phenyl)pyrido [2,3-d]pyridazin-8-yl)-3-phenylpyrrolidin-3-ol], 1600 nM; for `O=C1NC2(CCN(c3nnc(-c4ccc(C(F)(F)F)cc4O)c4cccnc34)CC2)CO1` [Example 25, 8-(5-(2-hydroxy-4-(trifluoromethyl)phenyl)pyrido [2,3-d]pyridazin-8-yl)-3-oxa-1,8-diazaspiro[4.5]decan-2-one], 148 nM.
As to `C[C@@H]1CN(c2nnc(-c3ccc(C(F)(F)F)cc3O)c3ccnnc23)C[C@H](C)O1` [Example 8, 2-(8-((cis)-2,6-dimethylmorpholino)pyridazino[4,5-c]pyridazin-5-yl)-5-(trifluoromethyl)phenol], the 50% effective concentration (EC50) is 515 nM.
The same measure for `Oc1cc(C(F)(F)F)ccc1-c1nnc(N2CCC(O)(C3CC3)C2)c2ncccc12` (racemic) [Example 45, (R and S)-3-cyclopropyl-1-(5-(2-hydroxy-4-(trifluoromethyl)phenyl)pyrido [2,3-d]pyridazin-8-yl)pyrrolidin-3-ol]: 1180 nM.
For `Oc1cc(C(F)(F)F)ccc1-c1nnc(N2CCC3(CCCO3)C2)c2ncccc12` (racemic) [Example 29, (R and S)-2-(8-(1-oxa-7-azaspiro[4.4]nonan-7-yl)pyrido[2,3-d]pyridazin-5-yl)-5-(trifluoromethyl)phenol] the value was 353 nM; for `CC1(C)CCOC12CCN(c1nnc(-c3ccc(C(F)(F)F)cc3O)c3cccnc13)CC2` [Example 37, 2-(8-(4,4-dimethyl-1-oxa-8-azaspiro[4.5]decan-8-yl)pyrido[2,3-d]pyridazin-5-yl)-5-(trifluoromethyl)phenol], 1130 nM; for `C[C@]1(O)CCN(c2nnc(-c3ccc(C(F)(F)F)cc3O)c3ccc(C(F)(F)F)nc23)C1` [Example 12, (S)-1-(5-(2-hydroxy-4-(trifluoromethyl)phenyl)-2-(trifluoromethyl)pyrido[2,3-d]pyridazin-8-yl)-3-methylpyrrolidin-3-ol], 621 nM.
For `C[C@@H]1CN(c2nnc(-c3ccc(C(F)(F)F)cc3O)c3cnncc23)C[C@H](C)O1` [Example 9, 2-(4-((cis)-2,6-dimethylmorpholino)pyridazino[4,5-d]pyridazin-1-yl)-5-(trifluoromethyl)phenol] the value was 80 nM; for `CC1(CO)CCN(c2nnc(-c3ccc(C(F)(F)F)cc3O)c3cccnc23)C1` (racemic) [Example 48, (R and S)-2-(8-(3-(hydroxymethyl)-3-methylpyrrolidin-1-yl)pyrido[2,3-d]pyridazin-5-yl)-5-(trifluoromethyl)phenol], 411 nM; for `O=C1COC2(CCN(c3nnc(-c4ccc(C(F)(F)F)cc4O)c4cccnc34)CC2)CN1` [Example 32, 9-(5-(2-hydroxy-4-(trifluoromethyl)phenyl)pyrido [2,3-d]pyridazin-8-yl)-1-oxa-4,9-diazaspiro[5.5]undecan-3-one], 330 nM.
Turning to `CCC1(O)CCN(c2nnc(-c3ccc(C(F)(F)F)cc3O)c3cccnc23)C1` (racemic) [Example 47, (R and S)-3-ethyl-1-(5-(2-hydroxy-4-(trifluoromethyl)phenyl)pyrido [2,3-d]pyridazin-8-yl)pyrrolidin-3-ol], the EC50 turned out to be 494 nM.
The same measure for `Cc1ccc2c(N3C[C@@H](C)O[C@@H](C)C3)nnc(-c3ccc(C(F)(F)F)cc3O)c2c1` [Example 21, 2-(4-((cis)-2,6-dimethylmorpholino)-7-methylphthalazin-1-yl)-5-(trifluoromethyl)phenol]: 815 nM.
The same measure for `CN1CC2(CCN(c3nnc(-c4ccc(C(F)(F)F)cc4O)c4cccnc34)CC2)OC1=O` [Example 36, 8-(5-(2-hydroxy-4-(trifluoro-methyl)phenyl)pyrido[2,3-d]-pyridazin-8-yl)-3-methyl-1-oxa-3,8-diazaspiro[4.5]decan-2-one]: 742 nM; for `C[C@]1(O)CCN(c2nnc(-c3ccc(C(F)(F)F)cc3O)c3ccc(C(F)F)nc23)C1` [Example 56]: 90 nM.
Take `Oc1cc(C(F)(F)F)ccc1-c1nnc(N2CCC(O)(C(F)F)C2)c2ncccc12` (racemic) [Example 28, (R and S)-3-(difluoromethyl)-1-(5-(2-hydroxy-4-(trifluoromethyl)phenyl)pyrido [2,3-d]pyridazin-8-yl)pyrrolidin-3-ol]: the EC50 is 447 nM.
For `C[C@@H]1CN(c2nnc(-c3ccc(C(F)(F)F)cc3O)c3cnccc23)C[C@H](C)[C@]1(C)O` [Example 17, (3S,4s,5R)-1-(4-(2-hydroxy-4-(trifluoromethyl)phenyl)pyrido[3,4-d]pyridazin-1-yl)-3,4,5-trimethylpiperidin-4-ol] the value was 201 nM.
For `C[C@]1(O)CCN(c2nnc(-c3ccc(C(F)(F)F)cc3O)c3cc(C(F)F)cnc23)C1` [Example 57] the value was 1570 nM; for `C[C@@H]1CN(c2nnc(-c3ccc(C(F)(F)F)cc3O)c3cnncc23)C[C@H](C)[C@]1(C)O` [Example 13, (3S,4s,5R)-1-(4-(2-hydroxy-4-(trifluoromethyl)phenyl)pyridazino [4,5-d]pyridazin-1-yl)-3,4,5-trimethylpiperidin-4-ol], 264 nM; for `CC(=O)N1CCCC12CCN(c1nnc(-c3ccc(C(F)(F)F)cc3O)c3cccnc13)CC2` [Example 34, 1-(8-(5-(2-hydroxy-4-(trifluoromethyl)phenyl)pyrido [2,3-d]pyridazin-8-yl)-1,8-diazaspiro[4.5]decan-1-yl)ethan-1-one], 1510 nM.
For the compound `Oc1cc(C(F)(F)F)ccc1-c1nnc(N2CCC(O)(C(F)(F)F)C2)c2ncccc12` (racemic) [Example 27, (R and S)-1-(5-(2-hydroxy-4-(trifluoromethyl)phenyl)pyrido [2,3-d]pyridazin-8-yl)-3-(trifluoromethyl)pyrrolidin-3-ol], the EC50 is 1230 nM.
The same measure for `Cc1cc(C(F)(F)F)ccc1-c1nnc([C@H]2C[C@@H](C)O[C@@H](C)C2)c2ccccc12` [Example 53, 1-((2R,4r,6S)-2,6-dimethyltetrahydro-2H-pyran-4-yl)-4-(2-methyl-4-(trifluoromethyl)phenyl)phthalazine]: 3970 nM; for `CN(C)CC1(O)CCN(c2nnc(-c3ccc(C(F)(F)F)cc3O)c3cccnc23)C1` (racemic) [Example 46, (R and S)-3-((dimethylamino)methyl)-1-(5-(2-hydroxy-4-(trifluoromethyl)phenyl)pyrido [2,3-d]pyridazin-8-yl)pyrrolidin-3-ol]: 831 nM.
For `C[C@@H]1CN(c2nnc(-c3ccc(C(F)(F)F)cc3O)c3cccnc23)C[C@H](C)C1(F)F` [Example 33, 2-(8-((cis)-4,4-difluoro-3,5-dimethylpiperidin-1-yl)pyrido[2,3-d]pyridazin-5-yl)-5-(trifluoromethyl)phenol] the value was 221 nM; for `Oc1cc(C(F)(F)F)ccc1-c1nnc(N2C[C@@H]3[C@H](C2)C3(F)F)c2ncccc12` [Example 41, 2-(8-(6,6-difluoro-3-azabicyclo[3.1.0]hexan-3-yl)pyrido[2,3-d]pyridazin-5-yl)-5-(trifluoromethyl)phenol], 999 nM.
The same measure for `CC1CN(c2nnc(-c3ccc(C(F)(F)F)cc3O)c3cccnc23)CC(CO)O1` (single isomer, unassigned) [Example 52, 2-(8-((2S,6S or 2R,6R)-2-(hydroxy-methyl)-6-methyl-morpholino)pyrido[2,3-d]pyridazin-5-yl)-5-(trifluoro-methyl)phenol]: 74 nM.
